In data set [1] the target is Lysine-specific demethylase 5A (Homo sapiens, UniProt P29375). Description: Inhibition of KDM5A (unknown origin) preincubated with enzyme.
Data set [2] addresses T1, Lysine-specific demethylase 4C (Homo sapiens, UniProt Q9H3R0).
T1 sequence (Q9H3R0 whole entry): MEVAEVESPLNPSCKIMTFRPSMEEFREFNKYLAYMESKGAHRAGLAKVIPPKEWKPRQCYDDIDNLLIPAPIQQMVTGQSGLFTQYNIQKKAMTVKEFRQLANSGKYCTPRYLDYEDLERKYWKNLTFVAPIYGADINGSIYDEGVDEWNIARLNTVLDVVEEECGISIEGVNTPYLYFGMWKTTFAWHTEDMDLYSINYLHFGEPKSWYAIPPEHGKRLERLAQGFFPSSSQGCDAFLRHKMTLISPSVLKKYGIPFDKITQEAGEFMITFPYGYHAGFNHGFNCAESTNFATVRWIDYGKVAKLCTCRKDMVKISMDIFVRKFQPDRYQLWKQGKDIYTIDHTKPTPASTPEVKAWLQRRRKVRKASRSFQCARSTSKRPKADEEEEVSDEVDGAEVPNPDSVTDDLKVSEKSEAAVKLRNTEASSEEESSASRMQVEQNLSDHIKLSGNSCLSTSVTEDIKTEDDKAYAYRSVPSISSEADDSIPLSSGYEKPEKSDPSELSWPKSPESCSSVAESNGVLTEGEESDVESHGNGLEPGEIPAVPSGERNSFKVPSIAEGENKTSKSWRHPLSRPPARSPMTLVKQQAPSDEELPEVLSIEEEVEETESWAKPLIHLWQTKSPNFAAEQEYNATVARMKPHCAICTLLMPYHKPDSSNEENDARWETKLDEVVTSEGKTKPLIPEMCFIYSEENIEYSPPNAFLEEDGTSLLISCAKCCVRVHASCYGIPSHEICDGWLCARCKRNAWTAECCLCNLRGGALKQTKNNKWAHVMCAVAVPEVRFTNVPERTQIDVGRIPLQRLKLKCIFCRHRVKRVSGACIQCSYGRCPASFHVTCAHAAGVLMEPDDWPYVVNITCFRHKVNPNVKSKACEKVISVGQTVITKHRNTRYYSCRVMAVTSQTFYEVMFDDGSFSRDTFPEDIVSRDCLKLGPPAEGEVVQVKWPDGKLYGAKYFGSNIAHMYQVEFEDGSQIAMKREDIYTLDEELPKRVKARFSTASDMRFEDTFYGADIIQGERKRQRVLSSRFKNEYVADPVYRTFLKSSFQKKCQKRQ
Description: Inhibition of KDM4C (unknown origin) preincubated with enzyme.

Data set [3] concerns the target Lysine-specific histone demethylase 1A (Homo sapiens, UniProt O60341). As to the kind of experiment: Inhibition of KDM1A (unknown origin).
The target of data set [4] is T2, Lysine-specific demethylase 4A (Homo sapiens, UniProt O75164).
T2 sequence (O75164 whole entry): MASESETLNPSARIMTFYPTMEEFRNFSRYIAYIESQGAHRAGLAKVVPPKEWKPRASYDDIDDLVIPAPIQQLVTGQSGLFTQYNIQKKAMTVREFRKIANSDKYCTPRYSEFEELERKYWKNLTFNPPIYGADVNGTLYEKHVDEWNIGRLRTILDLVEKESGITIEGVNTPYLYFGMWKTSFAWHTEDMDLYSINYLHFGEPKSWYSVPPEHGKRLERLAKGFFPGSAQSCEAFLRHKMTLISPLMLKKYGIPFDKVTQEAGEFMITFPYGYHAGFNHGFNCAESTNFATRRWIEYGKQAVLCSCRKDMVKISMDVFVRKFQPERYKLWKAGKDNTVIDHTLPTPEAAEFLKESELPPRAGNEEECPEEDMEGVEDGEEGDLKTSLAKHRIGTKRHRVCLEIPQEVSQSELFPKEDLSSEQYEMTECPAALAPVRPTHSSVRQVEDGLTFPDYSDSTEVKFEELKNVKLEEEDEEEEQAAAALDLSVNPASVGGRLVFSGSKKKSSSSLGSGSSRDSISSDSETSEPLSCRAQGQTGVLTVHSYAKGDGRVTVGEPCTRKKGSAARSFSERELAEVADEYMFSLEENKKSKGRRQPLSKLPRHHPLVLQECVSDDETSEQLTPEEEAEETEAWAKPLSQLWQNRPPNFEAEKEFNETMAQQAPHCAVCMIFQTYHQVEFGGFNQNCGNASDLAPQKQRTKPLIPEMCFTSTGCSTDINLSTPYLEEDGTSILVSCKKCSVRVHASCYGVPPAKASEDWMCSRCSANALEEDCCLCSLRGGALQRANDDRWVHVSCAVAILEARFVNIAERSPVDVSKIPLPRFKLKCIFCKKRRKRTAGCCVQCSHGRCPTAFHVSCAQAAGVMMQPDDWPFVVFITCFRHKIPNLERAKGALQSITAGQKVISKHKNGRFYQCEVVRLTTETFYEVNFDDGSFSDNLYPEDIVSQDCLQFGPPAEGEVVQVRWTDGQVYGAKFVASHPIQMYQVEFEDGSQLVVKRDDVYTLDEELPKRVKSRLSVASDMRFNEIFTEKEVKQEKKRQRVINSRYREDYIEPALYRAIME
Description: Inhibition of KDM4A (unknown origin).

Data set [5] concerns the target T3, Lysine-specific demethylase 4D (Homo sapiens, UniProt Q6B0I6).
T3 sequence (Q6B0I6 whole entry): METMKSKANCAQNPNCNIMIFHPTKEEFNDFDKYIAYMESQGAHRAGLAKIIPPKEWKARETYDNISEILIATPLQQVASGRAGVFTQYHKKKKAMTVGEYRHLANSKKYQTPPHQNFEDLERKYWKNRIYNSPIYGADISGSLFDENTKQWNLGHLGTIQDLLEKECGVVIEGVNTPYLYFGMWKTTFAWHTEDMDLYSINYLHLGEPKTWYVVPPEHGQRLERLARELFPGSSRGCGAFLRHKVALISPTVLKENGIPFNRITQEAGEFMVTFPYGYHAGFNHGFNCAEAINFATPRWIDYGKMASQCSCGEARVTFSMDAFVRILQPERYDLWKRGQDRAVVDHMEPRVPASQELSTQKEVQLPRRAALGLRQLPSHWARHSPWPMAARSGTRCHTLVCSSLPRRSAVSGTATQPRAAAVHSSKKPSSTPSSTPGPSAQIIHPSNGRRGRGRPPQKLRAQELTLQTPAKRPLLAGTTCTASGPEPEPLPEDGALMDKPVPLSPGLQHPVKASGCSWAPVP
Description: Inhibition of KDM4D (unknown origin).

Data set [6] has as its target Lysine-specific demethylase 6B (Homo sapiens, UniProt O15054). As to the kind of experiment: Inhibition of KDM6B (unknown origin).
Data set [7] in a line: Volume of distribution in CD-1 mouse at 5 mg/kg, iv. The class given is ADME, organism-based. The settings on record: in vivo.
Data set [8] is described as follows: AUC in CD-1 mouse at 10 mg/kg, po. It is filed as ADME, organism-based. Particulars: in vivo.
The target in data set [9] is Voltage-gated inwardly rectifying potassium channel KCNH2 (Homo sapiens, UniProt Q12809). As to the kind of experiment: Inhibition of human ERG.
Chain of Voltage-gated inwardly rectifying potassium channel KCNH2 (Q12809 whole entry): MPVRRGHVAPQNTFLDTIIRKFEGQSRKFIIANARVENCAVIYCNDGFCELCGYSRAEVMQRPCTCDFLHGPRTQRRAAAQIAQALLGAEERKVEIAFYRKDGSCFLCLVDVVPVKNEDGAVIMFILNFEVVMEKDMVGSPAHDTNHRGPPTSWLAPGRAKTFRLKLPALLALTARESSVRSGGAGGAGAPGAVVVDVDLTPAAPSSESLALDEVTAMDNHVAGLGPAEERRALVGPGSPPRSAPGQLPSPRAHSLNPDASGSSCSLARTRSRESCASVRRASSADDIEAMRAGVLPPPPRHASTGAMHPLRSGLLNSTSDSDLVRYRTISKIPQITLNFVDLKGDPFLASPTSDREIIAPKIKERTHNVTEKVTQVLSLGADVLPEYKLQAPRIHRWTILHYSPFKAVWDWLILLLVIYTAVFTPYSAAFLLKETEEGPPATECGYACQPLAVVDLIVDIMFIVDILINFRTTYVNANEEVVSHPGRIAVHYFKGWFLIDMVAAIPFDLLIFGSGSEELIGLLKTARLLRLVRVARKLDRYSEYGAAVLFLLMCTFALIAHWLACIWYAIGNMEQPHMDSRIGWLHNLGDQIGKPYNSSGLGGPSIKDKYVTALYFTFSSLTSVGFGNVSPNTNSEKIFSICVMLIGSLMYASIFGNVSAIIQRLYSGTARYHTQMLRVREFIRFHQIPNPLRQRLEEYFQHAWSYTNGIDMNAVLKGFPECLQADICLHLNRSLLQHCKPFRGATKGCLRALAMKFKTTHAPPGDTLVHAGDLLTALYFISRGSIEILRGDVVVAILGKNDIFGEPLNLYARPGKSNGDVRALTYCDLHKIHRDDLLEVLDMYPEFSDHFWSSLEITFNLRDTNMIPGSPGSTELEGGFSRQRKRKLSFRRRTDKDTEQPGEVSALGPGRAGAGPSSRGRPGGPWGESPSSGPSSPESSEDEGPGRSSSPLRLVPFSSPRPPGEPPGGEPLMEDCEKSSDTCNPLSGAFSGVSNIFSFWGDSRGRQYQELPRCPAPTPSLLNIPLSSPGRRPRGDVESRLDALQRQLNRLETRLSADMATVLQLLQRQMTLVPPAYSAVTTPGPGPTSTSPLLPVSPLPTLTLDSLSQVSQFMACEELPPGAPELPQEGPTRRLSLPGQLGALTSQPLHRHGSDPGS
The test system of a further data set is Mus musculus. Description: In vivo inhibition of KDM5 in nude mouse xenografted with human MCF7 cells assessed as increase in H3K4me3 level in tumor at 75 mg/kg, po qd for 5 days measured up to 24 hrs post last dose by Western blot analysis. The class given is functional, organism-based. On the technique in general: A xenograft is tissue or cells of one species grown in another, often human tumour cells in immunodeficient mice.

Calls of active or inactive are those of the source. The rule behind the calls is not given here.

Chain of Lysine-specific demethylase 6B (O15054 whole entry): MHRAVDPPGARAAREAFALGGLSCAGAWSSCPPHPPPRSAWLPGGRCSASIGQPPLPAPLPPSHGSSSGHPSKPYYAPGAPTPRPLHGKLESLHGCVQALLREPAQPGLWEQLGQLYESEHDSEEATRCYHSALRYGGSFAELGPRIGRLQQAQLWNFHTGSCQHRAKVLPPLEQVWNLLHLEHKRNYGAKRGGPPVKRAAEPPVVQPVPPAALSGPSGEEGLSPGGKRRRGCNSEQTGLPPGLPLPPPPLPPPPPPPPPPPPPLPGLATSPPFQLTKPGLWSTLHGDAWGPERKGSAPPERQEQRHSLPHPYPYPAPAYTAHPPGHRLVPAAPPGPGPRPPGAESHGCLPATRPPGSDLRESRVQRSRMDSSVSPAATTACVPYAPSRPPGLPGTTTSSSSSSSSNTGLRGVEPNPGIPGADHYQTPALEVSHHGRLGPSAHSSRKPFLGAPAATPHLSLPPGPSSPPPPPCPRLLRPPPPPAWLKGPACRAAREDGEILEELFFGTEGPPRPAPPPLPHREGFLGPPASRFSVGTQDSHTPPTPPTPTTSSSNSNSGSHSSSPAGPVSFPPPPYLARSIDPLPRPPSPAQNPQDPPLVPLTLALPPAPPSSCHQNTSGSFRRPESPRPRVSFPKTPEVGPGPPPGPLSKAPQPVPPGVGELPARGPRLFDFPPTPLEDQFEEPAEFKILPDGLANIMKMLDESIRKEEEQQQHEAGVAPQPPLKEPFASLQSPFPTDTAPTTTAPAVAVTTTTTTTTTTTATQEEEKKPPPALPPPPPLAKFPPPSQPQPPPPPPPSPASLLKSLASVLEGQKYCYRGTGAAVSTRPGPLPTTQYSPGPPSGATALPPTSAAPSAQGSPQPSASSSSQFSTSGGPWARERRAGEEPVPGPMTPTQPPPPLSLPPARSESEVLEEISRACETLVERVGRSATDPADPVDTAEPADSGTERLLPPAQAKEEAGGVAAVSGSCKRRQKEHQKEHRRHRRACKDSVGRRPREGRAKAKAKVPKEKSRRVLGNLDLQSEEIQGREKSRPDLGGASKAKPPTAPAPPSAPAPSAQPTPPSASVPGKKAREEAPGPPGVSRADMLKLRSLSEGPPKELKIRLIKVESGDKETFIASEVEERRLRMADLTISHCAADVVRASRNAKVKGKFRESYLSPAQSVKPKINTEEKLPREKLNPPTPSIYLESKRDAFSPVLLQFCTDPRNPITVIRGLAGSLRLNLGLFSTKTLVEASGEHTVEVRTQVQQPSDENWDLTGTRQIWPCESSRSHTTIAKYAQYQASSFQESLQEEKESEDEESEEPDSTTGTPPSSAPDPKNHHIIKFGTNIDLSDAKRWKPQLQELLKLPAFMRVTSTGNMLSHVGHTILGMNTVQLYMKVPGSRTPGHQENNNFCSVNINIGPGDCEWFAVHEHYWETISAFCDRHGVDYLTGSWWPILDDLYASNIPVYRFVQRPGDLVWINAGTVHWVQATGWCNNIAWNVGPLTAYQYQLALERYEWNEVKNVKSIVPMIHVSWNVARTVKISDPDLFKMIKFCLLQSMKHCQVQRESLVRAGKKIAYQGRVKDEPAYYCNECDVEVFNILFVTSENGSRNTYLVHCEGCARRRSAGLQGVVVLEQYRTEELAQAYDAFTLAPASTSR
Chain of Lysine-specific demethylase 5A (P29375 whole entry): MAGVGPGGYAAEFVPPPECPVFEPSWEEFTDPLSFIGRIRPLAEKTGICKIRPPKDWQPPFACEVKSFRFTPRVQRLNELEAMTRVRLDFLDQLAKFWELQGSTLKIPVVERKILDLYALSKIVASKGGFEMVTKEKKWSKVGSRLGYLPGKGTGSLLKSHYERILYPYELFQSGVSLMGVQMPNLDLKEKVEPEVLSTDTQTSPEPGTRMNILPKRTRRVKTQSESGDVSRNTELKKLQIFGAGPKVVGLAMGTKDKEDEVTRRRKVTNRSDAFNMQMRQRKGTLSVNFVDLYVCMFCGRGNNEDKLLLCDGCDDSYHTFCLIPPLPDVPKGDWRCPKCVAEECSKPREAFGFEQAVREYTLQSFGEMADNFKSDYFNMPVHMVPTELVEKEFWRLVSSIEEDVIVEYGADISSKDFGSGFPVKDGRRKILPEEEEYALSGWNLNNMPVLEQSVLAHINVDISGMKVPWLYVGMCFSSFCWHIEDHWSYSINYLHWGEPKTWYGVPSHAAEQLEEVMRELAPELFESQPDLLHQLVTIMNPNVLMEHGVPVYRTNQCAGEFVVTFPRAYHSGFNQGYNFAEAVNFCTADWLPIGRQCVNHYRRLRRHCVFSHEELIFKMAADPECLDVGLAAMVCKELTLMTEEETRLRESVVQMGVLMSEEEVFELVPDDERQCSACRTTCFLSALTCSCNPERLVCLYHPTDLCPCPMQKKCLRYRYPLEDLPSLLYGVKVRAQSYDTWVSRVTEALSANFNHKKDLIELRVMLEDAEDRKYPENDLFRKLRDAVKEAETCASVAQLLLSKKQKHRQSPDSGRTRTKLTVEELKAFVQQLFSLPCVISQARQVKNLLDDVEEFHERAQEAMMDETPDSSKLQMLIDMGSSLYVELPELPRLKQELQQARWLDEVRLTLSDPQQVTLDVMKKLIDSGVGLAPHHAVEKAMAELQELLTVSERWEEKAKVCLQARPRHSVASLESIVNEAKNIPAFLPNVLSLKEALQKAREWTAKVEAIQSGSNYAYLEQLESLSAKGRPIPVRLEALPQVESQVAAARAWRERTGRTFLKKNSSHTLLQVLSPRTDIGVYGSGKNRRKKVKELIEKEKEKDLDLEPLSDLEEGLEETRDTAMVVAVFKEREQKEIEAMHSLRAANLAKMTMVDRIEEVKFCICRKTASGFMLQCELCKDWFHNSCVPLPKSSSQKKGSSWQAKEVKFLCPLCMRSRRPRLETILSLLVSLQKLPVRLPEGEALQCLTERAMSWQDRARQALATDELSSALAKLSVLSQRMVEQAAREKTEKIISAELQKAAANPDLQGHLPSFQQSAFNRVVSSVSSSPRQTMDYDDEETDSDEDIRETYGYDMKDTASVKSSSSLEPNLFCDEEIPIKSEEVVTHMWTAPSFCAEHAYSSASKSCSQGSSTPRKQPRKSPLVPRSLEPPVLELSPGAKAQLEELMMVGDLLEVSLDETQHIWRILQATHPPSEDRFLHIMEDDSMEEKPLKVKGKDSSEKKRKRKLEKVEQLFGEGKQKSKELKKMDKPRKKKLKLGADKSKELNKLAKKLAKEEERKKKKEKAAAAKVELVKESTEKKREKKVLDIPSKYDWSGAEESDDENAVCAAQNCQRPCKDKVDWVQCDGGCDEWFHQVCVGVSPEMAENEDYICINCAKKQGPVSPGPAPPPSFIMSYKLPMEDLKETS

With `Cc1cc(Cl)ccc1COc1ccnn1-c1cc(C(=O)O)ccn1`, the IC50 (usually the concentration needed to halve the response being measured) in [1] is 0.013 µM; in [2], 0.035 to 0.041 µM; in data set [3] it was greater than 40 µM; in data set [4], 0.099 µM; in [5], 0.11 µM; in data set [6] it was 2.3 µM. The Vd (in general, the apparent volume that relates the amount in the body to the concentration in plasma or blood) in data set [7] came out at 0.16 L/kg. Also, the AUC – broadly, the area under the concentration-time curve, a measure of exposure – in data set [8] was 44 µg·h/mL. Also, in data set [9], the “inhibition (INH)” value is recorded as “Not Active”. For the same compound, in the data set on Mus musculus, the inhibition result is “Active”.
